Data: patent publication US8685974B2 (Bayer CropScience AG, priority 2009, dated 2014)
Like-named read-outs stand apart in the source and are kept apart here. Marks after values point to notes of the source that are not given here.

Tests used:
Fusarium graminearum = type: cell-based; conditions: 50 μM; for % Inhibition of DON/AcDON at 50 μM: 7 days at 28° C.

N#CCCn1cc(-c2ccncc2)c(-c2ccc(Cl)s2)n1 [Example 322]
log p (pH 2.7): 0.98^[b] | % Inhibition of fungal growth at 50 μM (Fusarium graminearum): 0% | % Inhibition of DON/AcDON at 50 μM (Fusarium graminearum): 99%

COCC(=O)Nc1cc(-c2cn(C(C)C)nc2-c2ccc(Cl)s2)ccn1 [Example 244]
log p (pH 2.7): 3.25^[b] | % Inhibition of fungal growth at 50 μM (Fusarium graminearum): 100% | % Inhibition of DON/AcDON at 50 μM (Fusarium graminearum): 99%

Nc1cc(-c2cn(/C=C/F)nc2-c2ccc(Cl)s2)ccn1 [Example 301]
log p (pH 2.7): 1.59^[b] | % Inhibition of fungal growth at 50 μM (Fusarium graminearum): 60% | % Inhibition of DON/AcDON at 50 μM (Fusarium graminearum): 99%

Brc1ccc(-c2nn(C3CCCC3)cc2-c2ccncc2)s1 [Example 356]
log p (pH 2.7): 2.37^[b] | % Inhibition of fungal growth at 50 μM (Fusarium graminearum): 75% | % Inhibition of DON/AcDON at 50 μM (Fusarium graminearum): 97%

CCn1cc(-c2ccnc(NC(=O)N(C)C)c2)c(-c2ccc(Cl)s2)n1 [Example 251]
log p (pH 2.7): 1.72^[b] | % Inhibition of fungal growth at 50 μM (Fusarium graminearum): 100% | % Inhibition of DON/AcDON at 50 μM (Fusarium graminearum): 99%

CC(C)n1cc(-c2ccncc2)c(-c2ccc(I)s2)n1 [Example 214]
log p (pH 2.7): 1.89^[b] | % Inhibition of fungal growth at 50 μM (Fusarium graminearum): 89% | % Inhibition of DON/AcDON at 50 μM (Fusarium graminearum): 99%

Cn1cc(-c2ccnc(Cl)c2)c(-c2ccc(Cl)s2)n1 [Example 313]
log p (pH 2.7): 3.37^[b] | % Inhibition of fungal growth at 50 μM (Fusarium graminearum): 6% | % Inhibition of DON/AcDON at 50 μM (Fusarium graminearum): 98%

O=C1OCCC1n1cc(-c2ccncc2)c(-c2cc3ccsc3s2)n1 (stereo not drawn) [Example 372]
log p (pH 2.7): 1.49^[b] | % Inhibition of fungal growth at 50 μM (Fusarium graminearum): 1% | % Inhibition of DON/AcDON at 50 μM (Fusarium graminearum): 98%

CSc1ccc(-c2nn(C(C)C)cc2-c2ccncc2)s1 [Example 294]
log p (pH 2.7): 1.79^[b] | % Inhibition of fungal growth at 50 μM (Fusarium graminearum): 92% | % Inhibition of DON/AcDON at 50 μM (Fusarium graminearum): 99%

Clc1ccc(Cn2cc(-c3ccncc3)c(-c3ccc(Br)s3)n2)s1 [Example 351]
log p (pH 2.7): 2.69^[b] | % Inhibition of fungal growth at 50 μM (Fusarium graminearum): 36% | % Inhibition of DON/AcDON at 50 μM (Fusarium graminearum): 99%

CCCNc1nccc(-c2c[nH]nc2-c2ccc(Cl)s2)n1 [Example 65]
log p (pH 2.3): 1.75^[a]

CC(C)Cn1ncc(-c2cc[n+]([O-])c(NCc3ccccc3)c2)c1-c1ccc(Cl)s1 [Example 75]
log p (pH 2.3): 3.48^[a]

CC(C)n1cc(-c2ccnc(N)c2)c(-c2ccc(Cl)s2)n1 [4-[(3/5)-(5-Chloro-2-thienyl)-1-isopropyl-1H-pyrazol-4-yl]pyridin-2-amine]
logP (pH2.7) (pH 2.7): 1.78 | logP (pH2.7), minor isomer (pH 2.7): 1.72

N#CCCn1cc(-c2ccncc2)c(-c2cc(Cl)cs2)n1 [Example 126]
log p (pH 2.7): 1.16^[b]

[O-][n+]1ccc(-c2c[nH]nc2-c2ccc(Cl)s2)cc1Cl [Example 59]
log p (pH 7.8): 1.57^[c]

CCC(C)n1cc(-c2ccnc(SC)n2)c(-c2ccc(Cl)s2)n1 (stereo not drawn) [Example 221]
log p (pH 2.3): 4.88^[a]

CC(C)Cn1ncc(-c2ccnc(Cl)c2)c1-c1ccc(Cl)s1 [Example 72]
log p (pH 2.3): 4.65^[a]

CCC(C)n1cc(-c2ccnc(Br)c2)c(-c2ccc(Cl)s2)n1 (stereo not drawn) [Example 100]
log p (pH 2.7): 5.03^[b]

CC(C)Cn1cc(-c2cc[n+]([O-])c(N)c2)c(-c2ccc(Cl)s2)n1 [Example 77]
log p (pH 2.3): 2.39^[a] | logP value of the minor isomer (in parenthesis in column Isomer ratio [d]) (pH 2.3): (2.21)

Fc1cccc(Cn2cc(-c3ccncc3)c(-c3ccc(Cl)s3)n2)c1F [Example 325]
log p (pH 2.7): 2.39^[b]

CC(C)CC(C)n1ncc(-c2ccncn2)c1-c1ccc(Cl)s1 (stereo not drawn) [Example 28]
log p (pH 2.7): 4.29^[b]

CC(=O)c1ccc(-c2[nH]ncc2-c2ccncc2)s1 [Example 36]
log p (pH 2.7): 0.62^[b]

CC(C)Nc1nccc(-c2cn(C3CCCC3)nc2-c2ccc(Cl)s2)n1 [4-[(3/5)-(5-Chloro-2-thienyl)-1-cyclopentyl-1H-pyrazol-4-yl]-2-(isopropylamino)pyrimidine]
logP (pH2.7) (pH 2.7): 3.61 | logP (pH2.7), minor isomer (pH 2.7): 3.33

[O-][n+]1ccc(-c2c[nH]nc2-c2ccc(Cl)s2)cc1Cl [2-Chloro-4-[3-(5-chloro-2-thienyl)-1H-pyrazol-4-yl]pyridine N oxyde]
logP (pH2.7) (pH 2.7): 1.57

CCn1cc(-c2ccnc(NS(=O)(=O)N(C)C)c2)c(-c2ccc(Cl)s2)n1 [Example 219]
log p (pH 2.7): 2.59^[b]

CC(C)C(C)n1ncc(-c2ccncn2)c1-c1ccc(Cl)s1 (stereo not drawn) [Example 32]
log p (pH 2.7): 3.8^[b]

NNc1nccc(-c2c[nH]nc2-c2ccc(Cl)s2)n1 [Example 78]
log p (pH 2.3): 2.26^[a]

CCn1cc(-c2ccncc2)c(-c2sccc2Cl)n1 [Example 163]
log p (pH 2.7): 1.14^[b]

Cn1cc(-c2ccncc2)c(-c2cc(Cl)cs2)n1 [Example 125]
log p (pH 2.7): 1.11^[b] | logP value of the minor isomer (pH 2.7): (1.05)

CCn1cc(-c2ccncc2)c(-c2cc(Cl)cs2)n1 [Example 156]
log p (pH 2.7): 1.34^[b]

CCn1cc(-c2ccnc(NC(C)C)n2)c(-c2ccc(Cl)s2)n1 [Example 141]
log p (pH 2.7): 2.39^[b] | logP value of the minor isomer (pH 2.7): (2.20)

C=CCn1cc(-c2ccncc2)c(-c2ccc(Br)s2)n1 [Example 383]
log p (pH 2.7): 1.82^[b] | logP value of the minor isomer (pH 2.7): (1.73)

CSc1ccc(-c2c(-c3ccncc3)cnn2C(C)C)s1 [Example 295]
log p (pH 2.7): 1.78^[b]

CCC(C)n1cc(-c2ccnc(NC(=O)C(C)(C)C)c2)c(-c2ccc(Cl)s2)n1 (stereo not drawn) [Example 231]
log p (pH 2.7): 4.35^[b]

CC(=O)N(C(C)=O)c1cc(-c2cn(C)nc2-c2ccc(N(C(C)=O)C(C)=O)s2)ccn1 [Example 289]
log p (pH 2.7): 1.84^[b]

CC(C)Nc1nccc(-c2cn(C3CCCC3)nc2-c2ccc(Cl)s2)n1 [Example 154]
log p (pH 2.7): 3.61^[b]

Clc1nccc(-c2c[nH]nc2-c2ccc(Cl)s2)n1 [Example 81]
log p (pH 2.3): 2.64^[a]

Clc1ccc(-c2n[nH]c(Br)c2-c2ccncc2)s1 [Example 44]
log p (pH 2.7): 1.4^[b]

Fc1cccc(Cn2cc(-c3ccncc3)c(-c3cc4ccsc4s3)n2)c1F [Example 327]
log p (pH 2.7): 1.75^[b]

ClC(Cl)=CCn1cc(-c2ccncc2)c(-c2cc3ccsc3s2)n1 [Example 335]
log p (pH 2.7): 1.67^[b]

CC(C)n1cc(-c2ccnc(Cl)n2)c(-c2ccc(Cl)s2)n1 [Example 192]
log p (pH 2.3): 4.31^[a]

COCn1cc(-c2ccnc(NC(C)C)n2)c(-c2ccc(Cl)s2)n1 [Example 115]
log p (pH 2.7): 2.39^[b] | logP value of the minor isomer (in parenthesis in column Isomer ratio [d]) (pH 2.7): (2.39)

CC(C)Cn1ncc(-c2cc[n+]([O-])c(Cl)c2)c1-c1ccc(Cl)s1 [2-Chloro-4-[1-isobutyl-5-(5-chloro-2-thienyl)-1H-pyrazol-4-yl]pyridine-N-oxyde]
logP (pH2.7) (pH 2.7): 3.06

CC(C)(C)n1ncc(-c2ccncc2)c1-c1ccc(Cl)s1 [Example 10]
log p (pH 2.7): 1.95^[b]

CC(C)(C)Cn1ncc(-c2ccncn2)c1-c1ccc(Cl)s1 [Example 34]
log p (pH 2.7): 3.82^[b]

Cn1cc(-c2ccnc(N=C(c3ccccc3)c3ccccc3)c2)c(-c2ccc(Cl)s2)n1 [Example 309]
log p (pH 2.7): 4.67^[b]

CC(C)Cn1cc(-c2ccncc2)c(-c2ccc(C#N)s2)n1 [Example 404]
log p (pH 2.7): 1.74^[b]

CCn1cc(-c2ccnc(NC(=O)c3ccccc3)c2)c(-c2ccc(Cl)s2)n1 [Example 266]
log p (pH 2.7): 3.55^[b]

N#Cc1ccccc1Cn1cc(-c2ccncc2)c(-c2ccc(Br)s2)n1 [Example 352]
log p (pH 2.7): 2.13^[b]

CC(C)Nc1nccc(-c2cn(C)nc2-c2ccc(Cl)s2)n1 [Example 139]
log p (pH 2.7): 2.07^[b] | logP value of the minor isomer (pH 2.7): (1.93)

Fc1ccccc1Cn1cc(-c2ccncc2)c(-c2sccc2Cl)n1 [Example 113]
log p (pH 2.7): 1.74^[b] | logP value of the minor isomer (in parenthesis in column Isomer ratio [d]) (pH 2.7): (1.76)

CC(C)Nc1nccc(-c2cn(CC#N)nc2-c2ccc(Cl)s2)n1 [Example 122]
log p (pH 2.7): 2.4^[b]

CCC(CC)n1cc(-c2ccncc2)c(-c2sccc2Cl)n1 [Example 130]
log p (pH 2.7): 1.78^[b] | logP value of the minor isomer (pH 2.7): (1.88)

Clc1ccsc1-c1nn(C2CCCC2)cc1-c1ccncc1 [Example 160]
log p (pH 2.7): 1.76^[b]

FC(F)Cn1cc(-c2ccnc(Cl)c2)c(-c2ccc(Cl)s2)n1 [Example 314]
log p (pH 2.7): 3.71^[b]

CCn1cc(-c2ccnc(NC(=O)OC(C)C)c2)c(-c2ccc(Cl)s2)n1 [Example 268]
log p (pH 2.7): 3.35^[b]

CCC(C)Nc1nccc(-c2cn(C(C)C)nc2-c2ccc(Cl)s2)n1 (stereo not drawn) [Example 182]
log p (pH 2.3): 3.15^[a]

Clc1ccsc1-c1nn(CCc2ccccc2)cc1-c1ccncc1 [Example 128]
log p (pH 2.7): 1.88^[b] | logP value of the minor isomer (pH 2.7): (1.84)

CCC(C)n1cc(-c2ccnc(NC(=O)c3ccccc3)c2)c(-c2ccc(Cl)s2)n1 (stereo not drawn) [Example 237]
log p (pH 2.7): 4.46^[b]

4-[3-(5-Chloro-2-thienyl)-1-isobutyl-1H-pyrazol-4-yl]-N-propylpyridin-2-amine 1-oxide
logP (pH2.7) (pH 2.7): 1.90

4-[5-Bromo-3-(5-chloro-2-thienyl)-1-(4-methoxybenzyl)-1H-pyrazol-4-yl]pyridine and 4-[3-bromo-5-(5-chloro-2-thienyl)-1-(4-methoxybenzyl)-1H-pyrazol-4-yl]pyridine
logP (pH2.7) (pH 2.7): 3.53 | logP (pH2.7), minor isomer (pH 2.7): 3.0

CCC(C)n1cc(-c2ccnc(NCc3ccccc3)n2)c(-c2ccc(Cl)s2)n1 (stereo not drawn) [Example 200]
log p (pH 2.3): 4.27^[a]

CC(C)Cn1cc(-c2cc[n+]([O-])c(N)c2)c(-c2ccc(Cl)s2)n1 [2-Amino-4-[1-isobutyl-3-(5-chloro-2-thienyl)-1H-pyrazol-4-yl]pyridine N oxide]
logP (pH2.7) (pH 2.7): 2.39

CCCCNC(=O)c1ccc(-c2[nH]ncc2-c2ccncc2)s1 [Example 37]
log p (pH 2.7): 0.0^[b]

Fc1ccc(-c2nn(CC=C(Cl)Cl)cc2-c2ccncc2)s1 [Example 346]
log p (pH 2.7): 1.43^[b]

Clc1ccc(Cn2cc(-c3ccncc3)c(-c3cc4ccsc4s3)n2)s1 [Example 339]
log p (pH 2.7): 2.57^[b] | logP value of the minor isomer (between parenthesis, Isomer ratio column) (pH 2.7): (2.35)

Clc1ccc(-c2c(-c3ccncc3)cnn2-c2ccccc2)s1 [Example 23]
log p (pH 2.7): 1.88^[b]

CCC(C)n1cc(-c2ccnc(NS(=O)(=O)N(C)C)c2)c(-c2ccc(Cl)s2)n1 (stereo not drawn) [Example 217]
log p (pH 2.7): 3.35^[b]

Clc1ccc(-c2c(-c3ccncc3)cnn2Cc2ccccc2)s1 [Example 42]
log p (pH 2.3): 1.94^[a]
